Laboratory results taken from patent US12268683B2, “Compounds and methods for synergistic activation of M channels” (THE REGENTS OF THE UNIVERSITY OF CALIFORNIA, priority 2018, dated 2025).
Values belong to the compound of their own block, whether it stands above or below them.

What was measured:
[1] = humans; cited from earlier work
KCNA1 = KCNA1 (Homo sapiens, UniProt Q09470); assay: TEVC of KCNA1 expressed in Xenopus oocytes; type: cell-based
Description: cRNA transcripts encoding human KCNA1, KCNQ1, KCNQ2, KCNQ3, KCNQ4, or KCNQ5 were generated by in vitro transcription using the T7 polymerase message machine kit (Thermo Fisher Scientific), after vector linearization, from cDNA sub-cloned into plasmids incorporating X. laevis β-globin 5′ and 3′ UTRs flanking the coding region to enhance translation and cRNA stability. cRNA was quantified by spectrophotometry. Mutant cDNAs were generated by site-directed mutagenesis using a QuikChange kit according to manufacturer's protocol (Stratagene, San Diego, Calif.) and corresponding cRNAs prepared as above. Defolliculated stage V and VI X. laevis oocytes (Ecocyte Bioscience, Austin, Tex.) were injected with Kv channel a subunit cRNAs (10 ng total per oocyte). […]
TEVC recording was performed at room temperature with an OC-725C amplifier (Warner Instruments, Hamden, Conn.) and pClamp10.2 software (Molecular Devices, Sunnyvale, Calif.) 3-5 days after cRNA injection as described in the section above. […] Currents were recorded in response to pulses between −80 and +40 mV at 20 mV intervals, or a single pulse to +40 mV, from a holding potential of −80 mV, to yield current-voltage relationships, current magnitude, and for quantifying activation rate. […]

[2] = test system: pentylene tetrazole-induced seizures; assay: PTZ chemoconvulsant assay; type: in vivo, mouse; conditions: for clonic seizure incidence: alone
Description: We compared anticonvulsant activities of test compounds in male C57BL/6 mice (Charles River) aged 2-3 months. Mice were housed and used according to the recommendations in the Guide for the Care and Use of Laboratory Animals of the National Institutes of Health (NIH Publication, 8th edition, 2011). The study protocol was approved by the Institutional Animal Care and Use Committee of University of California, Irvine, which confirmed that all relevant ethical regulations were adhered to. Chemicals were sourced from Sigma (St. Louis, Mo., USA). A pentylene tetrazole (PTZ) chemoconvulsant assay was used-. […] Following the PTZ injection, mice were caged individually and an observer (GWA) blinded to the drug used recorded, over 20 min, clonic and tonic seizure incidence, and seizure-related mortality.
We quantified the anticonvulsant activities of (E)-2-dodecenal and tridecanal in male C57BL/6 mice (Charles River, Wilmington, Mass.) aged 2-3 months. The mice were housed and used according to the recommendations in the Guide for the Care and Use of Laboratory Animals of the National Institutes of Health (NIH Publication, 8th edition, 2011). The study protocol was approved by the Institutional Animal Care and Use Committee of University of California, Irvine. The chemicals were sourced from Sigma (St. Louis, Mo., USA). We used a pentylene tetrazole (PTZ) chemoconvulsant assay as we previously described (30). We injected the mice intraperitoneally with (E)-2-dodecenal (2 or 20 mgkg^−1) (with or without 2.5 mgkg^−1 XE991) or tridecanal (20 mgkg^−1) solubilized in PBS, or vehicle control (PBS), and then 30 minutes later we injected mice intraperitoneally with 80 mgkg-PTZ. Following the PTZ injection, the mice were caged individually and an observer (GWA) blinded to the experimental condition timed the latency to first seizure.
We compared anticonvulsant activities of 3FMSG in male C57BL/6 mice (Charles River) aged 2-3 months. Mice were housed and used according to the recommendations in the Guide for the Care and Use of Laboratory Animals of the National Institutes of Health (NIH Publication, 8th edition, 2011). The study protocol was approved by the Institutional Animal Care and Use Committee of University of California, Irvine, which confirmed that all relevant ethical regulations were adhered to. Chemicals were sourced from Sigma (St. Louis, Mo., USA). We used a pentylene tetrazole (PTZ) chemoconvulsant assay as we previously described^27. Mice were injected intraperitoneally with 3FMSG (5 mg kg^−1) or vehicle control (PBS) and then 30 minutes later injected intraperitoneally with 80 mg kg^−1 PTZ. Following the PTZ injection, mice were caged individually and an observer (GWA) blinded to the drug used recorded seizure activity over 20 minutes.

KCNA1, sequence (Q09470 whole entry): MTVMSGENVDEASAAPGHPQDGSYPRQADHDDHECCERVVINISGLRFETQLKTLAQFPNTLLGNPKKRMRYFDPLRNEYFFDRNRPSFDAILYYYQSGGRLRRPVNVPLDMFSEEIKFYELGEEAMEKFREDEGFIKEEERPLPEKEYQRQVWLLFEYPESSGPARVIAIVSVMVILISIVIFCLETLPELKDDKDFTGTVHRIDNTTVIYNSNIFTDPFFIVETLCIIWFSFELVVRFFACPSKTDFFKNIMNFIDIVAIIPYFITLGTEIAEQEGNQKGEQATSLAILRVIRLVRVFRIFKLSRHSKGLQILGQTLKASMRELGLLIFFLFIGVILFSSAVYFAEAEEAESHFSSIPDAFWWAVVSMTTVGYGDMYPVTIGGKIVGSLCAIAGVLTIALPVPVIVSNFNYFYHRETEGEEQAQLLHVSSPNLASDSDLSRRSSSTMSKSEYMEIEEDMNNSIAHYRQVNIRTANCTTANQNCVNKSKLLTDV

SMILES: CC(C)CC(N)=O [Isovaleramide, isovaleramide]
mean Tmax [1]: 30 to 45 min
well tolerated dose [1]: at least 2400 mg per day

effect on KCNA1 (in words) (KCNA1): did not alter currents
SMILES: CC(C)CC(=O)O [IVA, isovaleric acid]
clonic seizure incidence ([2]; 10 mg/kg i.p.): neither compound reduced clonic seizures alone
clonic seizure incidence ([2]; 20 mg/kg i.p.): no effect
suppression of PTZ-induced tonic seizures ([2]; individually): ineffective
